In ChEMBL document CHEMBL1126993, “Synthesis of oxazolidinone phospholipid analogue as a new inhibitor of phospholipase A2” (Bioorg Med Chem Lett, 1993):

Experiments:
Phospholipase A2 [1] = biological target: T1, Phospholipase A2 (Homo sapiens, UniProt P04054); test: Tested for binding affinity of compound against Phospholipase A2 (PLA2); details: Gloydius blomhoffi
Target sequence in this assay (P04054 23-148 limits assumed): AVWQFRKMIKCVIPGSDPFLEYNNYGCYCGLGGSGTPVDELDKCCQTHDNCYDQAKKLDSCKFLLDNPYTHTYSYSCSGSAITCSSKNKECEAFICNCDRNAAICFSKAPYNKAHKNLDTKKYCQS

Phospholipase A2 [2] = biological target: T1, Phospholipase A2; test: Tested for inhibitory activity of compound against Phospholipase A2 (PLA2); showed no significant inhibitory activity; set-up: species or system Gloydius blomhoffi
Target sequence in this assay (P04054 whole entry): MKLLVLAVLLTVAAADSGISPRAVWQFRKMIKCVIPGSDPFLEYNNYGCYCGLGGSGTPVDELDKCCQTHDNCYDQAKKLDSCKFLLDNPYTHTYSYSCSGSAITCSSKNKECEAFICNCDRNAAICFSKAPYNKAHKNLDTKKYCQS

1/Ki (Phospholipase A2 [1]) | IC50 (Phospholipase A2 [2]) | SMILES
270000 M⁻¹ | – | CCCCCCCCCCCC(=O)N[C@H](CCCC)COP(=O)([O-])OCC[N+](C)(C)C
– | Not Active | CCCCCCCCCCCC(=O)N1C(=O)OC[C@H]1COP(=O)([O-])OCC[N+](C)(C)C
45000 M⁻¹ | – | CCCCCCCCCCCC(=O)N1C(=O)OC[C@@H]1COP(=O)([O-])OCC[N+](C)(C)C
